Test results taken from US4233303A, “Xanthine derivatives” (priority 1977, dated 1980).
Entries after “also recorded” stand apart in the source; their conditions may differ. Like-named read-outs stand apart in the source and are kept apart here.

Experiments:
[1] = system: actively sensitized rat (anaphylactic bronchospasm); assay: Active lung anaphylaxis in the rat (increase in intratracheal pressure after ovalbumin); type: in vivo, Sprague Dawley (printed "Spargue Dawley"); conditions: for Increase in intratracheal pressure (+ΔP): 1 min before ovalbumin, mean ± S.E.M.; for ED50: Rattus norvegicus, iv; for doses needed for protective effect / protective effect against anaphylactic bronchospasm (words, conclusion): actively sensitized rat; for protective effect against anaphylactic bronchospasm (words, conclusion): theophylline 0.010-2.5 mg/kg, disodiumcromoglicate 0.1-5.0 mg/kg; for concentrations showing inhibition of the anaphylactic bronchospasm / effect on the increase of the intratracheal pressure / maximum inhibition of the anaphylactic bronchospasm: 1 minute before ovalbumin
Protocol: The antianaphylactic effect was tested on actively sensitized laboratory animals.
The active sensitization of the animals was achieved by injecting ovalbumin, a protein. This administration makes the animals hypersensitive to subsequent challenge of ovalbumin with bronchoconstriction as a consequence. The antianaphylactic effect of the test compounds was tested in vivo by exposing the actively sensitized animals to ovalbumin and measuring the protective effect of test substance on the intratracheal pressure.
Rats, Spargue Dawley, 250 g, were sensibilized by 1.0 mg ovalbumin (Sigma) and 200 mg Al(OH)3 gel suspended in 1.0 ml saline. This suspension was administered subcutaneously at 2 sites (0.5 ml/site) on the abdominal side. This procedure was done with the animals lightly anesthetized by Mebumal. 18-26 days later the animals were used in the provocation experiments
The animal was anesthetized by i.p. injection of Mebumal, 50 mg/kg i.p. The trachea was cannulated and the animals was ventilated by a pump (Braun). The frequency of respiration was about 80 beats/min. The intratracheal pressure was measured by a Statham pressure transducer (P23AC). The normal pressure variations were 0- cm H2 O.
To inhibit spontaneous respiration there was need for Curare 0.8 mg/kg i.v. Alongside with the respiratory measurements the heart rate and arterial blood pressure was measured by a Statham pressure transducer connected with a. carotis. The blood pressure, pulse rate and intratracheal pressure were registered by means of a Grass polygraph.
Bronochoconstriction was induced by 5HT, 4-5 injections in v. jugularis of a standard dose. After that a single dose of ovalbumin, 5 mg, was administered. Test compound was administered 1 min before the challenging dose of ovalbumin. Because of desensitization towards the antigen (ovalbumin) this could only be administered once in each animal.
Calculation of anaphylactic bronchoconstriction
The maximum increase of the intratracheal pressure caused by ovalbumin was measured and this was expressed as the percentage increase of the intratracheal pressure. Comparisons were made between a group of control animals not treated with test compound and groups of animals treated with different doses of test compound.
They were initially dissolved in 0.8 ml NaOH (0.5 M) and 9.2 ml saline. This stock solution of compound, 10 mg/ml, was diluted further with saline if necessary. […] The compound was dissolved in saline.

[2] = system: basophil leucocytes and isolated lung tissue; conditions: cited from earlier work
[3] = read-out: ED 50 values (50% protection against the anaphylactic bronchospasm), i.v., extrapolated
[4] = read-out: Extrapolated intravenous dose for 50% protection (ED 50), i.v., Table VIII

Cc1nc2c([nH]1)c(=O)n(C)c(=O)n2-c1ccccc1 [D 4026, 3,7-dihydro-1,8-dimethyl-3-phenyl-1H-purine-2,6-dione]
Increase in intratracheal pressure (+ΔP) ([1]; 0.010 mg/kg i.v.): 33 ± 6% | Increase in intratracheal pressure (+ΔP) ([1]; 0.100 mg/kg i.v.): 7 ± 2% | Increase in intratracheal pressure (+ΔP) ([1]; 0.500 mg/kg i.v.): 9 ± 5% | ED50 [1, 3]: < 0.1 mg/kg | ED50 [1, 4]: 0.016 mg/kg | doses needed for protective effect ([1]; i.v.): 0.01 to 1.0 mg/kg | protective effect against anaphylactic bronchospasm (words, conclusion) [1]: show protective effect | concentrations showing inhibition of the anaphylactic bronchospasm ([1]; i.v.): 0.01 to 0.10 mg/kg | effect on the increase of the intratracheal pressure ([1]; i.v.): diminished the increase of the intratracheal pressure | maximum inhibition of the anaphylactic bronchospasm ([1]; i.v.): about 87%

Cc1nc2c([nH]1)c(=O)n(C)c(=O)n2CC(C)O (stereo not drawn) [D 4086, 3,7-dihydro-1,8-dimethyl-3-(2-hydroxypropyl)-1H-purine-2,6-dione]
Increase in intratracheal pressure (+ΔP) ([1]; 0.100 mg/kg i.v.): 26 ± 6% | Increase in intratracheal pressure (+ΔP) ([1]; 0.250 mg/kg i.v.): 14 ± 3% | Increase in intratracheal pressure (+ΔP) ([1]; 0.500 mg/kg i.v.): 2 ± 1% | ED50 [1, 3]: 0.1 to 0.27 mg/kg | ED50 [1, 4]: 0.12 mg/kg | doses needed for protective effect ([1]; i.v.): 0.01 to 1.0 mg/kg | protective effect against anaphylactic bronchospasm (words, conclusion) [1]: show protective effect | effect on the increase of the intratracheal pressure ([1]; i.v.): diminished the increase of the intratracheal pressure

CCCn1c(=O)c2[nH]c(C)nc2n(CC(C)O)c1=O (stereo not drawn) [D 4122, 3,7-dihydro-3-(2-hydroxypropyl)-8-methyl-1-propyl-1H-purine-2,6-dione]
Increase in intratracheal pressure (+ΔP) ([1]; 0.010 mg/kg i.v.): 34 ± 4% | Increase in intratracheal pressure (+ΔP) ([1]; 0.100 mg/kg i.v.): 23 ± 5% | Increase in intratracheal pressure (+ΔP) ([1]; 1.00 mg/kg i.v.): 18 ± 4% | ED50 [1, 3]: < 0.1 mg/kg | ED50 [1, 4]: 0.01 mg/kg | doses needed for protective effect ([1]; i.v.): 0.01 to 1.0 mg/kg | protective effect against anaphylactic bronchospasm (words, conclusion) [1]: show protective effect | concentrations showing inhibition of the anaphylactic bronchospasm ([1]; i.v.): 0.01 to 1.00 mg/kg | effect on the increase of the intratracheal pressure ([1]; i.v.): diminished the increase of the intratracheal pressure | maximum inhibition of the anaphylactic bronchospasm ([1]; i.v.): 79%

Cc1nc2c([nH]1)c(=O)n(C)c(=O)n2C1CCCC1 [D 4136, 3-cyclopentyl-3,7-dihydro-1,8-dimethyl-1H-purine-2,6-dione]
Increase in intratracheal pressure (+ΔP) ([1]; 0.025 mg/kg i.v.): 36 ± 4% | Increase in intratracheal pressure (+ΔP) ([1]; 0.100 mg/kg i.v.): 55% | Increase in intratracheal pressure (+ΔP) ([1]; 1.00 mg/kg i.v.): 27 ± 4% | ED50 [1, 4]: 0.13 mg/kg | doses needed for protective effect ([1]; i.v.): 0.01 to 1.0 mg/kg | protective effect against anaphylactic bronchospasm (words, conclusion) [1]: show protective effect | effect on the increase of the intratracheal pressure ([1]; i.v.): diminished the increase of the intratracheal pressure

CCn1c(=O)c2[nH]c(C)nc2n(CC2CCCCC2)c1=O [D 4139, 3,7-dihydro-1-ethyl-8-methyl-3-cyclohexylmethyl-1H-purine-2,6-dione]
Increase in intratracheal pressure (+ΔP) ([1]; 0.010 mg/kg i.v.): 74 ± 22% | Increase in intratracheal pressure (+ΔP) ([1]; 0.05 mg/kg i.v.): 50 ± 26% | Increase in intratracheal pressure (+ΔP) ([1]; 0.100 mg/kg i.v.): 35 ± 9% | ED50 [1, 3]: < 0.1 mg/kg | ED50 [1, 4]: 0.04 mg/kg | doses needed for protective effect ([1]; i.v.): 0.01 to 1.0 mg/kg | protective effect against anaphylactic bronchospasm (words, conclusion) [1]: show protective effect | concentrations showing inhibition of the anaphylactic bronchospasm ([1]; i.v.): 0.01 to 0.10 mg/kg | effect on the increase of the intratracheal pressure ([1]; i.v.): diminished the increase of the intratracheal pressure | maximum inhibition of the anaphylactic bronchospasm ([1]; i.v.): 68% | ED 50 values (50% protection against the anaphylactic bronchospasm) ([1]; i.v., extrapolated): 0.10 to 0.27 mg/kg

O=C(O)c1cc(=O)c2c(OCC(O)COc3cccc4oc(C(=O)O)cc(=O)c34)cccc2o1 [disodiumcromoglicate, reference compound]
Increase in intratracheal pressure (+ΔP) ([1]; 0.100 mg/kg i.v.): 46 ± 7% | Increase in intratracheal pressure (+ΔP) ([1]; 1.00 mg/kg i.v.): 22 ± 8% | Increase in intratracheal pressure (+ΔP) ([1]; 5.0 mg/kg i.v.): 46 ± 6% | ED 50 result in words (dose-response shape) ([1]; i.v.): bell shaped curves which made it impossible to calculate ED 50 values; also recorded: bell-shaped curve

Cn1c(=O)c2[nH]cnc2n(C)c1=O [theophylline]
inhibition of the anaphylactic release of histamine [2]: capable of inhibiting the anaphylactic release of histamine
